Measurements as given in ChEMBL document CHEMBL2074247, “Induction of P-glycoprotein expression by HIV protease inhibitors in cell culture” (AIDS, 2000).

Biological target: ATP-dependent translocase ABCB1 (Homo sapiens, UniProt P08183)
Assay: TP_TRANSPORTER: Western blot, LS-180V
Assay type: functional, cell-based

Sequence of ATP-dependent translocase ABCB1 (P08183 whole entry): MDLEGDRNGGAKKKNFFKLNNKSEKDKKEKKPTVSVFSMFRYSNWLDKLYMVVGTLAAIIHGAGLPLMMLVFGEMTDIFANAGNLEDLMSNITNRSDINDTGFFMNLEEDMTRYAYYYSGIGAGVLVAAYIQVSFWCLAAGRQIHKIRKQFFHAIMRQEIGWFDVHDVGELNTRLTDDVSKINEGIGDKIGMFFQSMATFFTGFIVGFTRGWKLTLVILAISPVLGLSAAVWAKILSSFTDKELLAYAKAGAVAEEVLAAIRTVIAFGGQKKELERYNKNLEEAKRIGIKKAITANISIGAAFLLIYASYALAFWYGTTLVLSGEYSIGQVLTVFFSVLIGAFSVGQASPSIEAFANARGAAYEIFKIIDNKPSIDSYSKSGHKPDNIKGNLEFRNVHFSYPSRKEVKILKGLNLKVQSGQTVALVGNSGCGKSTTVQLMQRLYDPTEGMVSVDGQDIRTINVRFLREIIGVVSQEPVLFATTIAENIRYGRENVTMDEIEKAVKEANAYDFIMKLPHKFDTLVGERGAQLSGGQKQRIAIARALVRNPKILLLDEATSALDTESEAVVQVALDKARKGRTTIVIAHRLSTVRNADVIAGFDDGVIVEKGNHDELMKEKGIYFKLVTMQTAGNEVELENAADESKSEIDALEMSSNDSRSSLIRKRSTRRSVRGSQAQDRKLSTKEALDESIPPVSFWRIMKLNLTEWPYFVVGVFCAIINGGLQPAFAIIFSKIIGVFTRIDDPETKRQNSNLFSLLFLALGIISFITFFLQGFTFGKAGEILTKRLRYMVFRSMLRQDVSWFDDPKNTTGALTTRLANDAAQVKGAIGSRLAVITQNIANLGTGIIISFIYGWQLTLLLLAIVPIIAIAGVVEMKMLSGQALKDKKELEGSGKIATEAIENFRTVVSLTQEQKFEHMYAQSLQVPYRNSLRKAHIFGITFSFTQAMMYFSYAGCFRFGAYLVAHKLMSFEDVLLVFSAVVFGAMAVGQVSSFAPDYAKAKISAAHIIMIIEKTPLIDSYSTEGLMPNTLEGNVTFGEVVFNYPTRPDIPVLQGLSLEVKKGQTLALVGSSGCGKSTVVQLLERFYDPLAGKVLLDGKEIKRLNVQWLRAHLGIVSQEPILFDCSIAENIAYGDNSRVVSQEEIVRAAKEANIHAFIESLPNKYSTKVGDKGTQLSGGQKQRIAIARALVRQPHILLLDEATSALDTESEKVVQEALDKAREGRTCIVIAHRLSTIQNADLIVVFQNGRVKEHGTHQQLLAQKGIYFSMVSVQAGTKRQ

| Activity | Structure (SMILES) |
| --- | --- |
| inducer [+] | CC(C)CN(C[C@@H](O)[C@H](Cc1ccccc1)NC(=O)O[C@H]1CCOC1)S(=O)(=O)c1ccc(N)cc1 [AMPRENAVIR] |
| inducer [+] | CC(C)(C)NC(=O)[C@@H]1CN(Cc2cccnc2)CCN1C[C@@H](O)C[C@@H](Cc1ccccc1)C(=O)N[C@H]1c2ccccc2C[C@H]1O.O [INDINAVIR] |
| inducer [+] | Cc1c(O)cccc1C(=O)N[C@@H](CSc1ccccc1)[C@H](O)CN1C[C@H]2CCCC[C@H]2C[C@H]1C(=O)NC(C)(C)C [NELFINAVIR] |
| inducer [+] | CC(C)(C)NC(=O)[C@@H]1C[C@@H]2CCCC[C@@H]2CN1C[C@@H](O)[C@H](Cc1ccccc1)NC(=O)[C@H](CC(N)=O)NC(=O)c1ccc2ccccc2n1 [SAQUINAVIR] |
| inducer [+] | COc1ccc(CCN(C)CCCC(C#N)(c2ccc(OC)c(OC)c2)C(C)C)cc1OC (stereo not given) [VERAPAMIL] |
